Test results as given in ChEMBL document CHEMBL1151717, “In vivo active aldosterone synthase inhibitors with improved selectivity: lead optimization providing a series of pyridine substituted 3,4-dihydro-1H-quinolin-2-one derivatives” (J Med Chem, 2008).

Assays:
Cytochrome P450 2D6 = Cytochrome P450 2D6 (Homo sapiens, UniProt P10635); test: Inhibition of human recombinant CYP2D6 expressed in baculovirus-infected insect microsomes; assay type: ADME, Microsome
[1] = molecular target: T1, Cytochrome P450 11B2, mitochondrial (Homo sapiens, UniProt P19099)
T1 sequence (P19099 whole entry): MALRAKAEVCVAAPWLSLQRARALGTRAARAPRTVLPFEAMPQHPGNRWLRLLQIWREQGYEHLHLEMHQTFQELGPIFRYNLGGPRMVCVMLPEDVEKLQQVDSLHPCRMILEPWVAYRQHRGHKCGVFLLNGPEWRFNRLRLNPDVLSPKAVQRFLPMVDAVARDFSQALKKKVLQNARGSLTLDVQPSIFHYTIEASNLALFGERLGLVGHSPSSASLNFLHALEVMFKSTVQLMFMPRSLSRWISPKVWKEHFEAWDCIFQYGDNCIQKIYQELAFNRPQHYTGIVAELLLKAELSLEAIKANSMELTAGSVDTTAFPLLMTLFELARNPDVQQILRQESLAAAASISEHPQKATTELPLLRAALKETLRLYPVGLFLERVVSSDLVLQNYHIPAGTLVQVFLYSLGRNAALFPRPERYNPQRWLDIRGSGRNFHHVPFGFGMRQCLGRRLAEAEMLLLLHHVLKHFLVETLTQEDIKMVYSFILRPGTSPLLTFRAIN

Cytochrome P450 3A4 = Cytochrome P450 3A4 (Homo sapiens, UniProt P08684); test: Inhibition of human recombinant CYP3A4 expressed in baculovirus-infected insect microsomes; assay type: ADME, Microsome
Chain of Cytochrome P450 3A4 (P08684 whole entry): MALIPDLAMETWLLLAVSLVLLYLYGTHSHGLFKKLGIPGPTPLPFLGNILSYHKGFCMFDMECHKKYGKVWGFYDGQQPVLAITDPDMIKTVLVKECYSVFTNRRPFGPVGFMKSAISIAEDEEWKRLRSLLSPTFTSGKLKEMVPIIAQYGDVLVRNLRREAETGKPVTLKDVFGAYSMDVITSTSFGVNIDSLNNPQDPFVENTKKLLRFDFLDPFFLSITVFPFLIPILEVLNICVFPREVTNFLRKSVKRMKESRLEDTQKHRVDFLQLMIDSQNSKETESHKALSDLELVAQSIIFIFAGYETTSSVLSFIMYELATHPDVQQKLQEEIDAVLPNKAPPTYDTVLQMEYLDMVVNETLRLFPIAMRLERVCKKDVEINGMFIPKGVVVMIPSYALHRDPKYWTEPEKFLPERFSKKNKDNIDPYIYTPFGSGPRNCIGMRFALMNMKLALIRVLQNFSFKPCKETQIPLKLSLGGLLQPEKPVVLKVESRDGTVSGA

Cytochrome P450 2C9 = Cytochrome P450 2C9 (Homo sapiens, UniProt P11712); test: Inhibition of human recombinant CYP2C9 expressed in baculovirus-infected insect microsomes; assay type: ADME, Microsome
Chain of Cytochrome P450 2C9 (P11712 whole entry): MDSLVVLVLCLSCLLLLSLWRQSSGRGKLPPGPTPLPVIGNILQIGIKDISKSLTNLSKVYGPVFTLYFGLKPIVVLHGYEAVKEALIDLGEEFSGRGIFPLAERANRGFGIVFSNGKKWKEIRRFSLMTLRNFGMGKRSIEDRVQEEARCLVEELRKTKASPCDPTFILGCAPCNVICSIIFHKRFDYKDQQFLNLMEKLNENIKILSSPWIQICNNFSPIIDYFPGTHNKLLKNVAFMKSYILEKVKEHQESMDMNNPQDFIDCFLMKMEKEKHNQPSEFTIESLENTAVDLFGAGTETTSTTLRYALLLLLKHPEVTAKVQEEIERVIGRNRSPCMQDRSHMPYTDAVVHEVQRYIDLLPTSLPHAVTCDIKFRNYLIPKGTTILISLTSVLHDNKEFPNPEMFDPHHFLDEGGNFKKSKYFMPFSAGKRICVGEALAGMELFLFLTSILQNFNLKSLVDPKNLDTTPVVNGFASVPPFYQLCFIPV

[2] = molecular target: T1, Cytochrome P450 11B2, mitochondrial; test: Inhibition of human CYP11B2 expressed in hamster V79 MZh cells at 500 nM; assay type: cell-based; details: V79MZh
Homo sapiens = species on record: Homo sapiens; test: Selectivity ratio, IC50 for human CYP11B1 to IC50 for human CYP11B2
CYP17 = molecular target: T2, CYP17 (Homo sapiens, UniProt P05093); test: in vitro; details: human CYP17 expressed in Escherichia coli
T2 sequence (P05093 whole entry): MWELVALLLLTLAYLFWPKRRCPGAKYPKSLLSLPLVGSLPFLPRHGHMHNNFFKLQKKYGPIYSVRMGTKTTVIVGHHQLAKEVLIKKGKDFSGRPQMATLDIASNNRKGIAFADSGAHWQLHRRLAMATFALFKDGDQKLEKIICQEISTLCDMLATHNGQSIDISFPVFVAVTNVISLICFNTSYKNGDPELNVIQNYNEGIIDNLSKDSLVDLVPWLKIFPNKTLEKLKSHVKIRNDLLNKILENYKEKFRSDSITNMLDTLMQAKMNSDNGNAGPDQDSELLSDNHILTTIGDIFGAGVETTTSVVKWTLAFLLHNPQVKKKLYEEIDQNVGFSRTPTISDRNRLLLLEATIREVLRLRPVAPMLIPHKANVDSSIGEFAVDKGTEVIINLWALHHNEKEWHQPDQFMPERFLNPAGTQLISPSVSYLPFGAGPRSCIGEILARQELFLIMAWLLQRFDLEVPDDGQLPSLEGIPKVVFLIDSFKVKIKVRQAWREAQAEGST
Description: Inhibition of human CYP17 expressed in Escherichia coli at 2.5 uM

Cytochrome P450 2B6 = molecular target: T3, Cytochrome P450 2B6 (Homo sapiens, UniProt P20813); test: Inhibition of human recombinant CYP2B6 expressed in baculovirus-infected insect microsomes; assay type: ADME, Microsome
T3 sequence (P20813 whole entry): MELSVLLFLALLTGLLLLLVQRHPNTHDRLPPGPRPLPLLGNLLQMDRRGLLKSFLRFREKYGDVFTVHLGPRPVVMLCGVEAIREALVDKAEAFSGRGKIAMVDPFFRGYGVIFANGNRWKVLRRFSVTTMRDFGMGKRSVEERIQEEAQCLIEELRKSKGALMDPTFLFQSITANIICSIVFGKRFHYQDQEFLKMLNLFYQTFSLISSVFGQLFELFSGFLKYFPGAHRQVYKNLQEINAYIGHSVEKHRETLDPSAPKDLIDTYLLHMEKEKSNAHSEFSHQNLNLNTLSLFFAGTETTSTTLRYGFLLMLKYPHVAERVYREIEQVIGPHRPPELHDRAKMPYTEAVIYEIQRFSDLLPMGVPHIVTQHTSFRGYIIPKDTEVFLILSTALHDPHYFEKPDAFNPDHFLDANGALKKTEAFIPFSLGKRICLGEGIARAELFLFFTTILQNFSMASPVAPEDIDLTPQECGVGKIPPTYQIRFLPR

CYP19 (aromatase) = molecular target: T4, CYP19 (aromatase) (Homo sapiens, UniProt P11511); test: Inhibition of human placental CYP19 at 500 nM; assay type: functional
T4 sequence (P11511 whole entry): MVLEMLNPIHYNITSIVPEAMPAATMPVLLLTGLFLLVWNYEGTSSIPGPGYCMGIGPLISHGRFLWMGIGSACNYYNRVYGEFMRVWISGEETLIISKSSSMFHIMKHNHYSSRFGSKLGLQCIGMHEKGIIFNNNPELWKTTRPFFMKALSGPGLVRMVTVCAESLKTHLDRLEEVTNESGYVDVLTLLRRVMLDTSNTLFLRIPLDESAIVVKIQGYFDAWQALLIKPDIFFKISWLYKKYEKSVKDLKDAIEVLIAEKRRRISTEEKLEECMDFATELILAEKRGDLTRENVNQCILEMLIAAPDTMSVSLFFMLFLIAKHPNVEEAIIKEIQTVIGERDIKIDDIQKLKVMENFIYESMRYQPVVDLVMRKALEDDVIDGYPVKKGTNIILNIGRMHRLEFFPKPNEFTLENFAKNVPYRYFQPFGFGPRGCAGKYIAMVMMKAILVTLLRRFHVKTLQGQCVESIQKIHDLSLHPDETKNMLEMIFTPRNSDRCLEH

CYP1A2 = molecular target: T5, CYP1A2 (Homo sapiens, UniProt P05177); test: Inhibition of human recombinant CYP1A2 expressed in baculovirus-infected insect microsomes at 2 uM; assay type: ADME, Microsome
T5 sequence (P05177 whole entry): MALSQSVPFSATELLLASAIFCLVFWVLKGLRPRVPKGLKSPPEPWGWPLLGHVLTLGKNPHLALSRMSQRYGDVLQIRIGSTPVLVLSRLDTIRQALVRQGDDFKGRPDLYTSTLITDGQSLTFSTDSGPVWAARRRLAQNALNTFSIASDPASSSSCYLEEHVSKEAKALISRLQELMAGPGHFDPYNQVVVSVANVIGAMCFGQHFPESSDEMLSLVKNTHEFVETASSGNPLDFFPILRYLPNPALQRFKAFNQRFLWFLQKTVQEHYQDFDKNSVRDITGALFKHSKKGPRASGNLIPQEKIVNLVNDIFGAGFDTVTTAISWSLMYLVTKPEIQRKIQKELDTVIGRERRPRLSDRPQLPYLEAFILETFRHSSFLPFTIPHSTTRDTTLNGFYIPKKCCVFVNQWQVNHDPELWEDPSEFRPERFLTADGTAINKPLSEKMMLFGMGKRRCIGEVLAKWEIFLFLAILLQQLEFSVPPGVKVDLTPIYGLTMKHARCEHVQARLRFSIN

Cytochrome P450 2C19 = Cytochrome P450 2C19 (Homo sapiens, UniProt P33261); test: Inhibition of human recombinant CYP2C19 expressed in baculovirus-infected insect microsomes; assay type: ADME, Microsome
Chain of Cytochrome P450 2C19 (P33261 whole entry): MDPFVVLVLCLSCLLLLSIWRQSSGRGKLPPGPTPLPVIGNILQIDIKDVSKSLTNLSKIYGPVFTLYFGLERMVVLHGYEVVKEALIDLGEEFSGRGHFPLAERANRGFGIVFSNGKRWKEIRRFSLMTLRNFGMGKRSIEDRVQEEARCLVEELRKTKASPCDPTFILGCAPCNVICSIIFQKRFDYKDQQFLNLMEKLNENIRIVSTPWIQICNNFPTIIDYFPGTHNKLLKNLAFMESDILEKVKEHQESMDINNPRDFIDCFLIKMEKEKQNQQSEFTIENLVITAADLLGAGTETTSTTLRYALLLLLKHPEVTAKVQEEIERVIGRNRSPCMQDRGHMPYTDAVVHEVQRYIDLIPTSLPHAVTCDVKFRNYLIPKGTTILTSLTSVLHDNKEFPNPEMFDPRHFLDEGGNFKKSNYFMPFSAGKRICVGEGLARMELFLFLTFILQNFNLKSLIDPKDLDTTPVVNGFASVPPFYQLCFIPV

Aromatase = molecular target: T6, Aromatase (Homo sapiens, UniProt P11511); test: Inhibition of human placental CYP19; assay type: functional
T6 sequence (P11511 whole entry): T4 sequence (P11511 whole entry)

Cytochrome P450 1A2 = molecular target: T7, Cytochrome P450 1A2 (Homo sapiens, UniProt P05177)
T7 sequence (P05177 whole entry): T5 sequence (P05177 whole entry)

[3] = molecular target: T8, Cytochrome P450 11B1, mitochondrial (Homo sapiens, UniProt P15538)
T8 sequence (P15538 whole entry): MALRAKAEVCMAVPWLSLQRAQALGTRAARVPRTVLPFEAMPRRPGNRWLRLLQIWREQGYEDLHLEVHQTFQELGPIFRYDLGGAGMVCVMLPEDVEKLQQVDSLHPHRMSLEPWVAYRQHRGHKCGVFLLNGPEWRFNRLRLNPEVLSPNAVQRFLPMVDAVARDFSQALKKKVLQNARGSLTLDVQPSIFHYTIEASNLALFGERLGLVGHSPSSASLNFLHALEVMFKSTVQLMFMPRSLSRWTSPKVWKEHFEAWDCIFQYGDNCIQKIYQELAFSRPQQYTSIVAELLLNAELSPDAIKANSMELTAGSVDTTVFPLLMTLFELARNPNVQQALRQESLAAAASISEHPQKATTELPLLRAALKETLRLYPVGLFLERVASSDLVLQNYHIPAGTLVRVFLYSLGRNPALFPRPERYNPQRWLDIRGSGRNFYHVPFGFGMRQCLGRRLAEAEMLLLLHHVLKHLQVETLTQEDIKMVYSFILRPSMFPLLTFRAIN

[4] = Cmax in Wistar rat at 5 mg/kg, po by cassette dosing; assay type: ADME, organism-based; set-up: dose 5 mg/kg, route oral; details: in vivo
[5] = AUC (0 to infinity) in Wistar rat at 5 mg/kg, po by cassette dosing; assay type: ADME, organism-based; set-up: time infinity, dose 5 mg/kg, route oral; details: plasma
[6] = Terminal half life in Wistar rat at 5 mg/kg, po by cassette dosing; assay type: ADME, organism-based; set-up: dose 5 mg/kg, route oral; details: in vivo, read-out: beta t1/2 (converted)
[7] = Tmax in Wistar rat at 5 mg/kg, po by cassette dosing; assay type: ADME, organism-based; set-up: dose 5 mg/kg, route oral; details: in vivo

Chain of Cytochrome P450 2D6 (P10635 whole entry): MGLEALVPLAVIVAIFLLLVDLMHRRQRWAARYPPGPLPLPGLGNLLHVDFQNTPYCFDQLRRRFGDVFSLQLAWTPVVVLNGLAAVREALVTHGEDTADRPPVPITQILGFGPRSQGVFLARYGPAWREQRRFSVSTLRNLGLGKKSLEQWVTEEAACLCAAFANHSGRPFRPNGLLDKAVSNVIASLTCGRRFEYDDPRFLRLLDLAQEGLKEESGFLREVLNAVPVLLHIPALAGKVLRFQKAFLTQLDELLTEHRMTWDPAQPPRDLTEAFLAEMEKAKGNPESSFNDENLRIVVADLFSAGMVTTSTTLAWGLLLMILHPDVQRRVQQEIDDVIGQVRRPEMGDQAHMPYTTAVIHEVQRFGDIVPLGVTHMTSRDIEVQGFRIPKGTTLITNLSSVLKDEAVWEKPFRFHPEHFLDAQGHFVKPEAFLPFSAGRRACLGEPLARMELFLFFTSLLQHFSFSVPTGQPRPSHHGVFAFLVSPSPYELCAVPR

| SMILES | IC50 [1] | inhibition at 0.5 µM [2] | Ratio IC50 (Homo sapiens) | inhibition at 2.5 µM (CYP17) | inhibition at 0.5 µM (CYP19 (aromatase)) | inhibition at 2 µM (CYP1A2) | IC50 [3] | other results |
| --- | --- | --- | --- | --- | --- | --- | --- | --- |
| N#Cc1ccc2cc(-c3cccnc3)ccc2c1 | – | – | – | 73% | – | – | – | IC50 (Aromatase): > 36000 nM |
| N#Cc1ccc(C2CCCc3cncn32)cc1 (centres undefined) [FADROZOLE] | – | – | – | – | – | – | – | Cmax [4]: 471 ng/mL; AUC(0-inf) [5]: 3210 ng·h/mL; half-life [6]: 3.2 h |
| O=C1Cc2cc(-c3cccnc3)ccc2N1 | – | – | – | – | – | 25% | – | – |
| CN1CCOc2cc(-c3cccnc3)ccc21 | 101 nM | 71% | 59 | – | – | – | 5970 nM | – |
| CN1C(=O)CCc2cc(-c3cccnc3)ccc21 | 2.6 nM | – | – | 8% | 54% | 53% | 742 nM | Tmax [7]: 6 h; IC50 (Cytochrome P450 2D6): < 200000 nM; IC50 (Cytochrome P450 1A2): 1790 nM; IC50 (Cytochrome P450 2C9): 125000 nM; Cmax [4]: 86 ng/mL; AUC(0-inf) [5]: 659 ng·h/mL; half-life [6]: 2.3 h; IC50 (Cytochrome P450 2B6): < 50000 nM; IC50 (Cytochrome P450 2C19; read-out: IC50): 122000 nM |
| S=C1CCc2cc(-c3cccnc3)cc(Cl)c2N1 | 4.2 nM | 97% | 183 | – | – | – | 769 nM | – |
| c1cncc(-c2ccc3c(c2)CCCC3)c1 | 29 nM | 82% | 68 | – | – | – | 1980 nM | – |

Now from value to compound, other results behind:

| IC50 [1] | inhibition at 0.5 µM [2] | Ratio IC50 (Homo sapiens) | inhibition at 2.5 µM (CYP17) | inhibition at 0.5 µM (CYP19 (aromatase)) | inhibition at 2 µM (CYP1A2) | IC50 [3] | SMILES | other results |
| --- | --- | --- | --- | --- | --- | --- | --- | --- |
| 3.3 nM | 97% | 347 | 44% | 22% | 80% | – | COC1CCc2cc(-c3cccnc3)ccc2C1 (centres undefined) | IC50 (Cytochrome P450 2D6): < 200000 nM; IC50 (Cytochrome P450 3A4): 12200 nM; IC50 (Cytochrome P450 2C9): 16300 nM; IC50 (Cytochrome P450 2B6): 47400 nM; IC50 (Cytochrome P450 2C19): < 200000 nM |
| – | – | – | 40% | – | 99% | – | c1cncc(-c2ccc3ccccc3c2)c1 | – |
| 1.6 nM | 97% | 181 | 74% | < 5% | 90% | 290 nM | N#CC1=Cc2ccc(-c3cccnc3)cc2CC1 | IC50 (Cytochrome P450 1A2): 180 nM |
| 22 nM | – | – | < 5% | 63% | 36% | 5180 nM | CCN1C(=O)CCc2cc(-c3cccnc3)ccc21 | IC50 (Cytochrome P450 1A2): 3480 nM |
